Laboratory results taken from US8865750B2, “Small molecule inhibitors of RGS proteins” (The Regents of The University of Michigan, priority 2011, dated 2014).
≈ marks a conversion by molar mass, not a printed value.

What was measured:
RGS8 = RGS8 (Homo sapiens (Human), UniProt P57771); test: FCPIA: Gαo binding to RGS8
Excerpt: FCPIA Dose Response and Reversibility Experiments:

107C RGS8 (C160S) = 107C RGS8 (C160S) (Homo sapiens (Human), UniProt P57771, C160S); test: FCPIA: RGS8 mutant 107C; format: binding
Sequence of 107C RGS8 (C160S) (P57771 other isoform, or with tags, fused parts or gaps C160S): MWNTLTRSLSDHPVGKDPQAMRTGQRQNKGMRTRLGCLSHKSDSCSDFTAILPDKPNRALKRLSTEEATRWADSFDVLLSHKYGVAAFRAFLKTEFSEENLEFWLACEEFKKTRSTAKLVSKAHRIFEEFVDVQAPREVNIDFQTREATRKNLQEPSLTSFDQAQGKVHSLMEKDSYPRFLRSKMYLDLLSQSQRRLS
Description: (§1) With the exception of RGS8 mutants, all RGS and G proteins were prepared as previously described (Roman, D., et al., Mol Pharmacol). […] Mutagenesis was performed using the QuickChange Multi-site Directed Mutagenesis kit (Agilent, La Jolla Calif.).
(§2) This protein only contains two cysteines in the RGS homology domain, making it a simpler model system to study than other RGS proteins. Each cysteine from the RGS8 RGS homology (RH) domain was individually mutated to serine and the activity of the compound was analyzed via FCPIA (FIG. 6).

160C RGS8 (C107S) = 160C RGS8 (C107S) (Homo sapiens (Human), UniProt P57771, C107S); test: FCPIA: RGS8 mutant 160C; format: binding
Sequence of 160C RGS8 (C107S) (P57771 other isoform, or with tags, fused parts or gaps C107S): as the sequence (P57771 other isoform, or with tags, fused parts or gaps C160S) above, with C107S, S160C counted along it
Description: as §1, §2

Solubility experiments = format: physicochemical; conditions: water; aqueous
Description: Compounds were diluted to 100 mM in DMSO and the further diluted to 500 μM in H2O, vortexed and centrifuged for 10 minutes at 13,000×g at ambient temperature.

HEK-293 cells = test: WST-1 cell viability; format: cell-based; conditions: up to 100 μM, overnight
Description: WST-1 Cell Viability Studies:
HEK-293 cells were plated to a density of 30,000/well in 96-well plates and grown for 48 hours in Dulbecco's Modified Eagle Medium (DMEM) containing 10% fetal bovine serum and Penicillin (100 units/ml)-Streptomycin (100 μg/ml) under 5% CO2 at 37° C. Compound treatment was performed overnight in DMEM containing 0.1% bovine serum albumin under 5% CO2 at 37° C. After compound incubation ten microliters of the WST-1 reagent (Hoffmann-La Roche, Switzerland) was added to every well and the cells were incubated for 1 hour under 5% CO2 at 37° C. Absorbance was measured at 450 nm using a Victor II plate reader (Perkin-Elmer, Picastaway, N.J.).

δ-opioid receptor = test: cAMP accumulation in SH-SY5Y cells, SNC80; format: cell-based
Description: (§3) Accumulated cAMP was measured by radioimmunoassay in a 10-15 μl aliquot of the supernatant from each sample following the manufacturer's instructions (cAMP radioimmunoassay kit from GE Healthcare, Piscataway, N.J.). Data are from four separate experiments, each carried out in duplicates and calculated as percent inhibition.
as §3, with “Cells were plated into 24-well plates to reach ˜90% confluency on the day of assay and washed once with fresh serum-free medium. […] Accumulated” for “Accumulated”

Sequence of RGS8 (P57771 other isoform, or with tags, fused parts or gaps): as the sequence (P57771 other isoform, or with tags, fused parts or gaps C160S) above, with S160C counted along it

Cc1ccc(-n2sc(=O)n(Cc3ccc(F)cc3)c2=O)cc1 [CCG-50014, 4-[(4-fluorophenyl)methyl]-2-(4-methylphenyl)-1,2,4-thiadiazolidine-3,5-dione] gave an IC50 (RGS8; Table 2, mean of two independent FCPIA experiments, read-out: RGS8 IC50) of 1100 nM, a Ki (RGS8; read-out: experimentally derived Ki value) of 300 nM and an inhibition at 20 µM (107C RGS8 (C160S); 20 μM, all time points, read-out: irreversible inhibition of 107C RGS8) of about 20%. For the same molecule, the IC50 (107C RGS8 (C160S); FIG. 6) was 46500 nM, the inhibition at 20 µM (160C RGS8 (C107S); 20 μM, all time points, read-out: irreversible inhibition of 160C RGS8) was about 50% and the IC50 (160C RGS8 (C107S); FIG. 6) was 710 nM. The solubility (Solubility experiments) was about 100 µM (≈ 31.6 µg/mL), the “cell viability (WST-1)” value (HEK-293 cells) was “did not reduce cell viability below control levels” and the “inhibition of forskolin-stimulated adenylate cyclase by SNC-80 with compound” value (δ-opioid receptor; 100 nM SNC-80 + 100 μM CCG-50014) was 44%. The “effect on forskolin-stimulation of cAMP production” value (δ-opioid receptor; 100 μM) was “no effect”.
